Assay results published in patent US9242996B2 (Novartis AG, priority 2013, dated 2016).

Each molecule was assayed against activated ERK2 (Homo sapiens (Human), UniProt P28482) (assay: Activated ERK2 kinase assay, ERK2 New conditions (AlphaScreen, ERKtide phosphorylation)). Conditions: 0.25 nM ERK2, 200 nM ERKtide peptide, 35 μM ATP, 30 min preincubation.
Type: biochemical
Procedure, shortened: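 Read-out is AlphaScreen with anti-phospho-EGFR (Thr669) antibody after EDTA quench and overnight dark incubation. Reaction: 0.25 nM ERK2, 30 min compound preincubation, then 200 nM ERKtide plus 35 µM ATP for 2–3 h at ambient temperature, pH 7.5. IC50 by four-parameter fit.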

activated ERK2, sequence (P28482 whole entry): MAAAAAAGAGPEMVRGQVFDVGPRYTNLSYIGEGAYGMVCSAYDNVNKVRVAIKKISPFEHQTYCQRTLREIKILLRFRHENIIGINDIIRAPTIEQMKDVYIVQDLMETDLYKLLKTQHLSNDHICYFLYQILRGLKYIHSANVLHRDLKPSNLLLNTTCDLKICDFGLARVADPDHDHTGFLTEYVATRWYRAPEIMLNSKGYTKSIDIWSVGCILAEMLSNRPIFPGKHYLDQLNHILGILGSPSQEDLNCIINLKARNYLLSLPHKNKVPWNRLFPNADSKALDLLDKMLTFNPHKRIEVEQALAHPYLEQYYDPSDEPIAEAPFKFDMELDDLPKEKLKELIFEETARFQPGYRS

| Structure (SMILES) | IC50 |
| --- | --- |
| Nc1ncc(-c2ccc(=O)[nH]c2)nc1-c1ccc(C(=O)N[C@H](CO)c2ccccc2)cc1 [Example 129, (S)-4-(3-amino-6-(6-oxo-1,6-dihydropyridin-3-yl)pyrazin-2-yl)-N-(2-hydroxy-1-phenylethyl)benzamide] | 2.02 nM |
| N#CCc1cnc(N)c(-c2ccc(C(=O)N[C@H](CO)c3ccccc3)c(F)c2)c1 [Example 134, (S)-4-(2-amino-5-(cyanomethyl)pyridin-3-yl)-2-fluoro-N-(2-hydroxy-1-phenylethyl)benzamide] | 202 nM |
| Nc1ncc([C@@H]2CCOC2)nc1-c1ccc(C(=O)N[C@H](CO)c2ccccc2)cc1 [Example 136, 4-(3-amino-6-((S)-tetrahydrofuran-3-yl)pyrazin-2-yl)-N—((S)-2-hydroxy-1-phenylethyl)benzamide] | 4.51 nM |
| Nc1ncc([C@H]2CCOC2)nc1-c1ccc(C(=O)N[C@H](CO)c2ccccc2)cc1 [Example 137, 4-(3-amino-6-((R)-tetrahydrofuran-3-yl)pyrazin-2-yl)-N—((S)-2-hydroxy-1-phenylethyl)benzamide] | 31 nM |
| Nc1ncc(-c2ccoc2)nc1-c1ccc(C(=O)N[C@H](CO)c2ccccc2)cc1 [Example 138] | 13.3 nM |
| Cc1cnccc1-c1cnc(N)c(-c2ccc(C(=O)NCc3cccc(S(C)(=O)=O)c3)cc2)n1 [Example 139, 4-(3-amino-6-(3-methylpyridin-4-yl)pyrazin-2-yl)-N-(3-(methylsulfonyl)benzyl)benzamide] | 7.95 nM |
| Cn1cncc1-c1cnc(N)c(-c2ccc(C(=O)N[C@H](CO)c3ccccc3)c(F)c2)c1 [Example 140, (S)-4-(2-amino 5-(1-methyl-1H-imidazol-5-yl)pyridin-3-yl)-2-fluoro-N-(2-hydroxy-1-phenylethyl)benzamide] | 1.41 nM |
| Cn1nncc1-c1cnc(N)c(-c2cc(F)c(C(=O)N[C@H](CO)c3cccc(Cl)c3)c(F)c2)c1 [Example 141, (S)-4-(2-amino-5-(1-methyl-1H-1,2,3-triazol-5-yl)pyridin-3-yl)-N-(1-(3-chlorophenyl)-2-hydroxyethyl)-2,6-difluorobenzamide] | 0.183 nM |
| Nc1ncc(-c2ccnnc2)nc1-c1ccc(C(=O)N[C@H](CO)c2ccccc2)c(F)c1 [Example 144, (S)-4-(3-amino-6-(pyridazin-4-yl)pyrazin-2-yl)-2-fluoro-N-(2-hydroxy-1-phenylethyl)benzamide] | 1.18 nM |
| Cn1cc(-c2cnc(N)c(-c3ccc(C(=O)N[C@H](CO)c4ccccc4)cc3)n2)cn1 [Example 146, (S)-4-(3-amino-6-(1-methyl-1H-pyrazol-4-yl)pyrazin-2-yl)-N-(2-hydroxy-1-phenylethyl)benzamide] | 3.39 nM |
| Cn1cc(-c2cnc(N)c(-c3ccc(C(=O)NCc4cccc(S(C)(=O)=O)c4)c(F)c3)n2)cn1 [Example 147, 4-(3-amino-6-(1-methyl-1H-pyrazol-4-yl)pyrazin-2-yl)-2-fluoro-N-(3-(methylsulfonyl)benzyl)benzamide] | 45.4 nM |
| Cn1cc(-c2cnc(N)c(-c3ccc(C(=O)N[C@H](CO)c4ccccc4)c(F)c3)n2)cn1 [Example 148, (S)-4-(3-amino-6-(1-methyl-1H-pyrazol-4-yl)pyrazin-2-yl)-2-fluoro-N-(2-hydroxy-1-phenylethyl)benzamide] | 1.9 nM |
| Cc1cc(-c2cc(-c3cnnn3C)cnc2N)ccc1C(=O)N[C@H](CO)c1cccc(Cl)c1 [Example 149, (S)-4-(2-amino-5-(1-methyl-1H-1,2,3-triazol-5-yl)pyridin-3-yl)-N-(1-(3-chlorophenyl)-2-hydroxyethyl)-2-methylbenzamide] | 0.149 nM |
| Cc1nn(C)cc1-c1cnc(N)c(-c2ccc(C(=O)N[C@H](CN)c3ccccc3)c(F)c2)c1 [Example 153, (S)-N-(2-amino-1-phenylethyl)-4-(2-amino-5-(1,3-dimethyl-1H-pyrazol-4-yl)pyridin-3-yl)-2-fluorobenzamide] | 0.38 nM |
| Cc1nn(C)c(C)c1-c1cnc(N)c(-c2ccc(C(=O)N[C@H](CO)c3cccc(Cl)c3)c(F)c2)c1 [Example 154, (S)-4-(2-amino 5-(1,3,5-trimethyl-1H-pyrazol-4-yl)pyridin-3-yl)-N-(1-(3-chlorophenyl)-2-hydroxyethyl)-2-fluorobenzamide] | 0.288 nM |
| Cn1cc(-c2cnc(N)c(-c3ccc(C(=O)NC4CC4c4ccccc4)c(F)c3)n2)cn1 (stereo not drawn) [Example 155, 4-(3-amino-6-(1-methyl-1H-pyrazol-4-yl)pyrazin-2-yl)-2-fluoro-N-(2-phenylcyclopropyl)benzamide] | 1.89 nM |
| Cc1noc(C)c1-c1cnc(N)c(-c2ccc(C(=O)N[C@H](CO)c3ccccc3)c(F)c2)n1 [Example 156, (S)-4-(3-amino-6-(3,5-dimethylisoxazol-4-yl)pyrazin-2-yl)-2-fluoro-N-(2-hydroxy-1-phenylethyl)benzamide] | 3.32 nM |

| Structure (SMILES) | IC50 |
| --- | --- |
| Cc1oncc1-c1cnc(N)c(-c2ccc(C(=O)N[C@H](CO)c3ccccc3)c(F)c2)n1 [Example 157, (S)-4-(3-amino-6-(5-methylisoxazol-4-yl)pyrazin-2-yl)-2-fluoro-N-(2-hydroxy-1-phenylethyl)benzamide] | 0.416 nM |
| Cc1oncc1-c1cnc(N)c(-c2ccc(C(=O)N[C@H](CO)c3ccccc3)c(F)c2)c1 [Example 158, (S)-4-(2-amino-5-(5-methylisoxazol-4-yl)pyridin-3-yl)-2-fluoro-N-(2-hydroxy-1-phenylethyl)benzamide] | 0.634 nM |
| Cn1cc(-c2cnc(N)c(-c3ccc(C(=O)N[C@H](CO)c4cccc(F)c4)c(F)c3)c2)c(C#N)n1 [Example 159, (S)-4-(2-amino-5-(3-cyano-1-methyl-1H-pyrazol-4-yl)pyridin-3-yl)-2-fluoro-N-(1-(3-fluorophenyl)-2-hydroxyethyl)benzamide] | 3.14 nM |
| Cn1cc(-c2cnc(N)c(-c3ccc(C(=O)N[C@H](CO)c4cccc(Cl)c4)c(F)c3)c2)c(C#N)n1 [Example 160, (S)-4-(2-amino 5-(3-cyano-1-methyl-1H-pyrazol-4-yl)pyridin-3-yl)-N-(1-(3-chlorophenyl)-2-hydroxyethyl)-2-fluorobenzamide] | 0.653 nM |
| Cc1ncc(-c2cnc(N)c(-c3ccc(C(=O)N[C@H](CO)c4ccccc4)c(F)c3)c2)n1C [Example 161, (S)-4-(2-amino-5-(1,2-dimethyl-1H-imidazol-5-yl)pyridin-3-yl)-2-fluoro-N-(2-hydroxy-1-phenylethyl)benzamide] | 5.78 nM |
| Cc1ncc(-c2cnc(N)c(-c3ccc(C(=O)N[C@H](CO)c4cccc(F)c4)c(F)c3)c2)n1C [Example 163, (S)-4-(2-amino-5-(1,2-dimethyl-1H-imidazol-5-yl)pyridin-3-yl)-2-fluoro-N-(1-(3-fluorophenyl)-2-hydroxyethyl)benzamide] | 5.14 nM |
| Nc1ncc(-c2cnoc2)cc1-c1ccc(C(=O)N[C@H](CO)c2ccccc2)c(F)c1 [Example 164, (S)-4-(2-amino-5-(isoxazol-4-yl)pyridin-3-yl)-2-fluoro-N-(2-hydroxy-1-phenylethyl)benzamide] | 1.4 nM |
| Cc1oncc1-c1cnc(N)c(-c2ccc(C(=O)N[C@H](CO)c3cccc(F)c3)c(F)c2)c1 [Example 165, (S)-4-(2-amino-5-(5-methylisoxazol-4-yl)pyridin-3-yl)-2-fluoro-N-(1-(3-fluorophenyl)-2-hydroxyethyl)benzamide] | 390 nM |
| Cn1cnnc1-c1cnc(N)c(-c2ccc(C(=O)N[C@H](CO)c3cccc(Cl)c3)c(F)c2)c1 [Example 167, (S)-4-(2-amino-5-(4-methyl-4H-1,2,4-triazol-3-yl)pyridin-3-yl)-N-(1-(3-chlorophenyl)-2-hydroxyethyl)-2-fluorobenzamide] | 0.998 nM |
| Cn1cc(-c2cnc(N)c(-c3ccc(C(=O)N[C@H](CO)c4ccccc4)c(F)c3)c2)c(C(F)(F)F)n1 [Example 168, (S)-4-(2-amino-5-(1-methyl-3-(trifluoromethyl)-1H-pyrazol-4-yl)pyridin-3-yl)-2-fluoro-N-(2-hydroxy-1-phenylethyl)benzamide] | 5.13 nM |
| Cc1c(-c2cnc(N)c(-c3ccc(C(=O)N[C@H](CO)c4ccccc4)c(F)c3)c2)cnn1C [Example 170, (S)-4-(2-amino-5-(1,5-dimethyl-1H-pyrazol-4-yl)pyridin-3-yl)-2-fluoro-N-(2-hydroxy-1-phenylethyl)benzamide] | 1.58 nM |
| COCCn1cc(-c2cnc(N)c(-c3ccc(C(=O)N[C@H](CO)c4ccccc4)c(F)c3)c2)cn1 [Example 171, (S)-4-(2-amino-5-(1-(2-methoxyethyl)-1H-pyrazol-4-yl)pyridin-3-yl)-2-fluoro-N-(2-hydroxy-1-phenylethyl)benzamide] | 1.09 nM |
| NC[C@@H](NC(=O)c1ccc(-c2nc(C3CCC(F)(F)CC3)cnc2N)cc1F)c1cccc(Cl)c1 [Example 197, (S)—N-(2-amino-1-(3-chlorophenyl)ethyl)-4-(3-amino-6-(4,4-difluorocyclohexyl)pyrazin-2-yl)-2-fluorobenzamide] | 2.1 nM |
| Nc1ncc([C@H]2CC[S@+]([O-])CC2)cc1-c1ccc(C(=O)N[C@H](CO)c2cccc(Cl)c2)c(F)c1 [Example 211, 4-(2-amino-5-((1S,4r)-1-oxidotetrahydro-2H-thiopyran-4-yl)pyridin-3-yl)-N—((S)-1-(3-chlorophenyl)-2-hydroxyethyl)-2-fluorobenzamide] | 5.44 nM |
| Nc1ncc(C2CCSCC2)cc1-c1ccc(C(=O)N[C@H](CO)c2cccc(Cl)c2)c(F)c1 [Example 212, (S)-4-(2-amino-5-(tetrahydro-2H-thiopyran-4-yl)pyridin-3-yl)-N-(1-(3-chlorophenyl)-2-hydroxyethyl)-2-fluorobenzamide] | 0.397 nM |
| CS(=O)(=O)N1CCCC(c2cnc(N)c(-c3ccc(C(=O)N[C@H](CO)c4ccccc4)c(F)c3)n2)C1 (stereo partly drawn) [Example 213, 4-(3-amino-6-(1-(methylsulfonyl)piperidin-3-yl)pyrazin-2-yl)-2-fluoro-N—((S)-2-hydroxy-1-phenylethyl)benzamide] | 11.9 nM |
